# Laboratory results reported in EPA's ToxRefDB 2.
# What was measured:
# rat [1] = details: Other (NonGuideline or Guideline Not Listed), sprague dawley, Oral, Gavage/Intubation, dose end: 7 day, group: cannot be grouped
# rat [2] = details: Carcinogenicity, fischer, Oral, Feed, dose end: 78 week, group: systemic
# mouse [3] = details: Subchronic oral toxicity in rodents, b6c3f1, Feed, dose end: 8 week, group: systemic
# rat [4] = details: Subchronic oral toxicity in rodents, fischer, Feed, dose end: 8 week, group: systemic
# mouse [5] = details: Carcinogenicity, b6c3f1, Oral, Feed, dose end: 78 week, group: systemic
# rat [6] = details: Subchronic oral toxicity in rodents, fischer, Feed, dose end: 13 week, group: systemic
# mouse [7] = details: Carcinogenicity, b6c3f1, Oral, Feed, dose end: 2 year, group: systemic
# mouse [8] = details: Subchronic oral toxicity in rodents, b6c3f1, Feed, dose end: 13 week, group: systemic, systemic / in life observation / body weight / body weight + systemic / in life observation / food consumption / food consumption
# rat [9] = details: Combined chronic toxicity/carcinogenicity, fischer, Oral, Feed, dose end: 2 year, group: systemic
# [10] = systemic / clinical chemistry / alanine aminotransferase (alt/sgpt) / alanine aminotransferase (alt/sgpt) + systemic / clinical chemistry / …
# [11] = systemic / in life observation / body weight / body weight gain + systemic / in life observation / clinical signs / defecation + systemic / …
# [12] = systemic / in life observation / body weight / body weight
# [13] = systemic / in life observation / body weight / body weight + systemic / pathology microscopic / urinary bladder / carcinoma + systemic / …
# [14] = systemic / in life observation / body weight / body weight + systemic / in life observation / mortality / mortality
# [15] = systemic / in life observation / body weight / body weight + systemic / pathology microscopic / gallbladder / hyperplasia
# [16] = systemic / in life observation / body weight / body weight + systemic / pathology microscopic / gallbladder / hyperplasia + systemic / …
# [17] = systemic / in life observation / body weight / body weight + systemic / in life observation / food consumption / food consumption
# [18] = systemic / in life observation / food consumption / food consumption
# [19] = systemic / in life observation / food consumption / food consumption + systemic / pathology microscopic / lung / adenoma/carcinoma combined…
smiles,measurement,setting,value
CCOc1cccc(-n2cc(C(=O)N3CCN(c4cc(C(=O)[O-])c5ccccc5c4)CC3)nc2-c2ccc(C)cc2)c1.[Na+],LOAEL,rat [1]; [10],> 500 mg/kg/day
same,NOAEL,rat [1]; [10],≥ 500 mg/kg/day
same,LEL,rat [1]; [11],10 mg/kg/day
same,NEL,rat [1]; [11],< 10 mg/kg/day
"Nc1ccc(Cl)cc1N [4-Chloro-1,2-diaminobenzene]",LOAEL,rat [2]; [12],250 mg/kg/day
same,NOAEL,rat [2]; [12],< 250 mg/kg/day
same,LEL,rat [2]; [13],250 mg/kg/day
same,NEL,rat [2]; [13],< 250 mg/kg/day
same,LEL,mouse [3]; [12],1500 mg/kg/day
same,LOAEL,mouse [3]; [12],1500 mg/kg/day
same,NEL,mouse [3]; [14],150 mg/kg/day
same,NOAEL,mouse [3]; [14],150 mg/kg/day
same,LEL,rat [4]; [12],500 mg/kg/day
same,LOAEL,rat [4]; [12],500 mg/kg/day
same,NEL,rat [4]; [14],50 mg/kg/day
same,NOAEL,rat [4]; [14],50 mg/kg/day
same,LOAEL,mouse [5]; [15],1050 mg/kg/day
same,NOAEL,mouse [5]; [15],< 1050 mg/kg/day
same,LEL,mouse [5]; [16],1050 mg/kg/day
same,NEL,mouse [5]; [16],< 1050 mg/kg/day
Oc1cccc2cccnc12 [8-Hydroxyquinoline],LOAEL,rat [6]; [17],300 mg/kg/day
same,NEL,rat [6]; [17],75 mg/kg/day
same,NOAEL,rat [6]; [17],150 mg/kg/day
same,LEL,rat [6]; [18],150 mg/kg/day
same,LOAEL,mouse [7]; [17],> 396 mg/kg/day
same,NOAEL,mouse [7]; [17],≥ 396 mg/kg/day
same,LEL,mouse [7]; [18],217 mg/kg/day
same,NEL,mouse [7]; [18],< 217 mg/kg/day
same,LEL,mouse [8],900 mg/kg/day
same,LOAEL,mouse [8],900 mg/kg/day
same,NEL,mouse [8],450 mg/kg/day
same,NOAEL,mouse [8],450 mg/kg/day
same,LEL,rat [9]; [18],73 mg/kg/day
same,NEL,rat [9]; [18],< 73 mg/kg/day
same,LOAEL,rat [9]; [19],> 143 mg/kg/day
same,NOAEL,rat [9]; [19],≥ 143 mg/kg/day
